Measurements: US5369098A, “Hydroxymethyl cyclobutyl purines” (E. R. Squibb & Sons, Inc., priority 1989, dated 1994)

Legend:
Format in all cases: cell-based
[1] = test system: HSV-1 (herpes simplex virus type 1, strain Schooler); assay: HSV-1 antiviral assay (plaque reduction in WI-38 cell monolayers); details: Human alphaherpesvirus 1, 96 h; WI-38 cells; plaque reduction of at least 50%; 4 days at 37° C.; read-out: ID50 for HSV-1
Protocol: (§1) Assays were performed in cell culture systems to determine the concentrations of compounds that are effective in preventing several kinds of viral infections. HSV-1 (herpes simplex virus type 1, strain Schooler), HSV-2 (herpes simplex virus type 2, strain 186), VZV (varicella zoster virus, strain ELLEN), MuLV (murine leukemia virus, strain CAS), HIV (human immunodeficiency virus, strain HTLV-IIIB). Cell Culture Assays: HSV-1, HSV-2, and VZV antiviral assays: Virus was adsorbed to WI-38 cell culture monolayers in 6 well culture plates (Costar, Cambridge, Mass.) for 1 hour prior to addition of maintenance medium containing duplicate dilutions of the test compound. Inhibition of plaque development was evaluated on fixed and stained monolayers after 4 days incubation at 37° C. for HSV-1 and HSV-2 and after 6-7 days incubation at 37° C. for VZV. ID50 values were determined from the drug concentration which conferred at least a 50% plaque reduction compared to virus controls.

[2] = test system: HSV-2 (herpes simplex virus type 2, strain 186); assay: HSV-2 antiviral assay (plaque reduction in WI-38 cell monolayers); details: Human alphaherpesvirus 2, 96 h; WI-38 cells; plaque reduction of at least 50%; 4 days at 37° C.; read-out: ID50 for HSV-2
Protocol: as §1

[3] = test system: HIV (human immunodeficiency virus, strain HTLV-IIIB); assay: HIV antiviral assay (reduction of viral cytopathic effect in CEM cells, XTT-PMS); details: Human immunodeficiency virus 1, IIIB, CCRF-CEM, 168 h, minimum drug concentration that inhibits CPE by 50%, 7 days at 37° C., read-out: ID50 for HIV
Protocol: Assays were performed in cell culture systems to determine the concentrations of compounds that are effective in preventing several kinds of viral infections. HSV-1 (herpes simplex virus type 1, strain Schooler), HSV-2 (herpes simplex virus type 2, strain 186), VZV (varicella zoster virus, strain ELLEN), MuLV (murine leukemia virus, strain CAS), HIV (human immunodeficiency virus, strain HTLV-IIIB). Cell Culture Assays: HIV antiviral assay: Suspensions of CEM cells (P. L. Nara, et. al., Nature 332, 469(1988)) were infected at a multiplicity of infection of 0.12 TCID50 /cell with HIV (strain HTLV-III B). […] Following incubation, viable cell numbers were counted in each well using a colorimetric assay following incubation of cells with XTT-PMS solution (XTT tetrazolium reagent plus phenazine methosulfate, PMS). Percent reduction of viral cytopathic effect (CPE) in drug treated compared to untreated virus infected cells, and percent reduction of cell viability in drug treated uninfected cells compared to untreated controls were calculated and plotted versus the drug concentrations tested. […]

[4] = Reduction of viability of uninfected CEM cells (XTT-PMS); details: human, footnotes *** and **** to HIV, 7 days, read-out: Minimum cytotoxic drug concentration that reduces cell viability by 50%
Protocol: HIV antiviral assay: Suspensions of CEM cells (P. L. Nara, et. al., Nature 332, 469(1988)) were infected at a multiplicity of infection of 0.12 TCID50 /cell with HIV (strain HTLV-III B). After adsorption for 1-2 hours at 37° C., infected cells were diluted in growth medium (RPMI 1640 containing the antibiotics penicillin plus streptomycin and 10% fetal calf serum) to give a final cell concentration of 1×10^4 viable cells/culture well in the presence of serial dilutions of the test compound, starting at 100 μg/ml. Triplicate samples at each drug concentration were used. Cultures of uninfected CEM cells were similarly prepared and incubated with serial dilutions of test compound in duplicate. All assays were performed in 96 well disposable cell culture plates. Untreated (infected and uninfected) cells were included as controls. […] Following incubation, viable cell numbers were counted in each well using a colorimetric assay following incubation of cells with XTT-PMS solution (XTT tetrazolium reagent plus phenazine methosulfate, PMS). Percent reduction of viral cytopathic effect (CPE) in drug treated compared to untreated virus infected cells, and percent reduction of cell viability in drug treated uninfected cells compared to untreated controls were calculated and plotted versus the drug concentrations tested. […]

[5] = test system: MuLV (murine leukemia virus, strain CAS); assay: MuLV antiviral assay (syncytial plaques, SC-1 cells / XC cells); details: SC1, XC cell overlay, syncytial plaques counted, read-out: ID50 for MuLV
Protocol: Assays were performed in cell culture systems to determine the concentrations of compounds that are effective in preventing several kinds of viral infections.
HSV-1 (herpes simplex virus type 1, strain Schooler), HSV-2 (herpes simplex virus type 2, strain 186), VZV (varicella zoster virus, strain ELLEN), MuLV (murine leukemia virus, strain CAS), HIV (human immunodeficiency virus, strain HTLV-IIIB). Cell Culture Assays:
MuLV antiviral assay: Antiviral assays using MuLV were performed with some modification, as described by Rowe et al. and Shannon et al.. SC-1 cells were planted at approximately 2×10^5 cell per well in 6 well plates. After overnight incubation at 37° C., the cell cultures were sensitized with DEAE-Dextran for one hour at 37° C., rinsed and inoculated with MuLV. Cultures were re-fed with growth medium containing different concentrations of the test compound. After three more days at 37° C., cultures were re-fed with fresh medium plus test compounds and incubated at 37° C. for an additional 3 days. Cultures were then washed to remove medium, ultraviolet light irradiated, and planted with approximately 5×10^5 XC cells per well in cell growth medium containing the appropriate concentration of the test compound. […] Finally the cultures were rinsed, stained and syncytial plaques were counted. […]

[6] = test system: VZV (varicella zoster virus, strain ELLEN); assay: VZV antiviral assay (plaque reduction in WI-38 cell monolayers); details: Human alphaherpesvirus 3; WI-38 cells; plaque reduction of at least 50%; 6-7 days at 37° C.; read-out: ID50 for VZV
Protocol: as §1

[7] = Cytotoxicity by microscopic examination of the cell sheet; details: human, WI-38 cells

Structure (SMILES) | IC50 [1] [µM] | IC50 [2] [µM] | IC50 [3] [µM] | CC50 at 168 h [4] [µM] | IC50 [5] [µM] | IC50 [6] [µM] | MCC at 96 h ([7]; footnote * to HSV-1 and HSV-2, 4 days, read-out: Cytotoxic concentration by microscopic examination of the cell sheet (HSV-1 and HSV-2 assays)) [µM] | MCC ([7]; footnote ** to VZV, 6-7 days, read-out: Cytotoxic concentration by microscopic examination of the cell sheet (VZV assay)) [µM]
Nc1nc2c(ncn2[C@H]2C[C@@H](CO)C2)c(=O)[nH]1 [Example 1, (cis)-2-amino-1,9-dihydro-9-[3-(hydroxymethyl)cyclobutyl]-6H-purin-6-one] | 9 to 21 | 9 to 21 | 230 | > 425 | 43 to 106 | 21 |  | 
Nc1ncnc2c1ncn2[C@H]1C[C@@H](CO)C1 [Example 2, (cis)-3-(6-Amino-9H-purin-9-yl)cyclobutanemethanol] | 456 | 456 | 301 | > 456 | 23 to 46 | > 114 | 456 | 228
